Columns and labels:
Cytochrome P450 1B1 [1] = molecular target: T1, Cytochrome P450 1B1 (Homo sapiens, UniProt Q16678); experiment: Inhibition of human CYP1B1 at 5 uM using 7-ethyl-O-resorufin as substrate incubated for 30 mins in presence of NADPH by EROD assay; conditions: 0.5 h
T1 sequence (Q16678 whole entry): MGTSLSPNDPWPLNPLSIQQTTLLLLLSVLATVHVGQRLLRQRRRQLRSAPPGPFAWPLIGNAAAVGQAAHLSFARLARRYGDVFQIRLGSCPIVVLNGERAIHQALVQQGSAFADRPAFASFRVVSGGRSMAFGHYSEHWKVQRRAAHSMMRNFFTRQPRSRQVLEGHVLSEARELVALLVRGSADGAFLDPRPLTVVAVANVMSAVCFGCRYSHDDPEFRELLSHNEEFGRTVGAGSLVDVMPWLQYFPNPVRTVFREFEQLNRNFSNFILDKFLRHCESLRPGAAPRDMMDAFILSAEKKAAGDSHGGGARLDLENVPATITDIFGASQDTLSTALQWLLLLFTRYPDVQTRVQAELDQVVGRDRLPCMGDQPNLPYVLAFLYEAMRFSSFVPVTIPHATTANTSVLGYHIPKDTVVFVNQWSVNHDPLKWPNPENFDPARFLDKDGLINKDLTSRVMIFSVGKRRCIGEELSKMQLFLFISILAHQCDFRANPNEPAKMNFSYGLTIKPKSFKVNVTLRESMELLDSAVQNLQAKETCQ

Cytochrome P450 1B1 [2] = molecular target: T1, Cytochrome P450 1B1; experiment: Inhibition of human CYP1B1 using 7-ethyl-O-resorufin as substrate incubated for 30 mins in presence of NADPH by EROD assay
A549 = experiment: Cytotoxicity against human A549 cells assessed as reduction in cell viability after 72 hrs by MTT assay; format: functional, cell-based; conditions: dose 5-10 µM
A549/Taxol = experiment: Cytotoxicity against human A549/Taxol cells assessed as reduction in cell viability after 72 hrs by MTT assay; format: functional, cell-based; conditions: dose 5-10 µM

| Structure (SMILES) | inhibition (INH) (Cytochrome P450 1B1 [1]) | IC50 (Cytochrome P450 1B1 [2]) [µM] | Activity (A549) | Activity (A549/Taxol) |
| --- | --- | --- | --- | --- |
| C#C[C@]1(O)CC[C@H]2[C@@H]3CCc4cc(O)ccc4[C@H]3CC[C@@]21C [ETHINYL ESTRADIOL] | Not Active |  |  |  |
| C=C[C@H]1C[N@@]2CC[C@H]1C[C@@H]2[C@@H](O)c1ccnc2ccc(OC)cc12 [QUINIDINE] | Not Active |  |  |  |
| COc1ccccc1OCCNCC(O)COc1cccc2[nH]c3ccccc3c12 (stereo not given) [CARVEDILOL] | Active | 1.1 | Dose-dependent effect | Dose-dependent effect |
| CC(CCc1ccccc1)NCC(O)c1ccc(O)c(C(N)=O)c1 (stereo not given) [LABETALOL] | Not Active |  |  |  |
| CCc1cc2c(cc1CC)CC(NC[C@H](O)c1ccc(O)c3[nH]c(=O)ccc13)C2 [INDACATEROL] | Active | 59.2 |  |  |
| CCN(CCO)CCCC(C)Nc1ccnc2cc(Cl)ccc12.O=S(=O)(O)O (stereo not given) [HYDROXYCHLOROQUINE SULFATE] | Not Active |  |  |  |

— ChEMBL document CHEMBL4765280, “Carvedilol serves as a novel CYP1B1 inhibitor, a systematic drug repurposing approach through structure-based virtual screening and experimental verification” (Eur J Med Chem, 2020)
